From ChEMBL document CHEMBL2073755, “TP-search Transporter Database” (Jpn Pharmacol Ther, 2001) come the findings set out here.

Series [1] has as its target T1, Solute carrier family 22 member 7 (Rattus norvegicus, UniProt Q5RLM2).
T1 sequence (Q5RLM2 whole entry): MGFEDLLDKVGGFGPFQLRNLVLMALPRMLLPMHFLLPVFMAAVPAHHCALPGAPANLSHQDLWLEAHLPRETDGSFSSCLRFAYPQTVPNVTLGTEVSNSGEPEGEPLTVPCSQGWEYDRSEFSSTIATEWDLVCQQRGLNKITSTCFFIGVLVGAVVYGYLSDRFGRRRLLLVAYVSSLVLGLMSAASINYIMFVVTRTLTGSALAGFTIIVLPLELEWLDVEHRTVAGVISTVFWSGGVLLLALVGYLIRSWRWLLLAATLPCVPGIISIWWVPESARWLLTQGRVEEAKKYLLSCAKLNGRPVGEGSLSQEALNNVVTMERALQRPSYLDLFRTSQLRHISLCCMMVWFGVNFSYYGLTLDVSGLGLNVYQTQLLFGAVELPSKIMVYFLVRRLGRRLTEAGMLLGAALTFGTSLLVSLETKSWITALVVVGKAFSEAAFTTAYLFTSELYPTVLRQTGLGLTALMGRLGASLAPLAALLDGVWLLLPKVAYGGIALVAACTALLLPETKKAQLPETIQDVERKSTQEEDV
The experiment in a line: TP_TRANSPORTER: inhibition of Salicylate uptake in Oat2-expressing LLC PK1 cells. In kind it is functional, cell-based.

For series [2], the target named is T2, Oat2 (Solute carrier family 22 member 7) (Rattus norvegicus, UniProt Q5RLM2).
T2 sequence (Q5RLM2 whole entry): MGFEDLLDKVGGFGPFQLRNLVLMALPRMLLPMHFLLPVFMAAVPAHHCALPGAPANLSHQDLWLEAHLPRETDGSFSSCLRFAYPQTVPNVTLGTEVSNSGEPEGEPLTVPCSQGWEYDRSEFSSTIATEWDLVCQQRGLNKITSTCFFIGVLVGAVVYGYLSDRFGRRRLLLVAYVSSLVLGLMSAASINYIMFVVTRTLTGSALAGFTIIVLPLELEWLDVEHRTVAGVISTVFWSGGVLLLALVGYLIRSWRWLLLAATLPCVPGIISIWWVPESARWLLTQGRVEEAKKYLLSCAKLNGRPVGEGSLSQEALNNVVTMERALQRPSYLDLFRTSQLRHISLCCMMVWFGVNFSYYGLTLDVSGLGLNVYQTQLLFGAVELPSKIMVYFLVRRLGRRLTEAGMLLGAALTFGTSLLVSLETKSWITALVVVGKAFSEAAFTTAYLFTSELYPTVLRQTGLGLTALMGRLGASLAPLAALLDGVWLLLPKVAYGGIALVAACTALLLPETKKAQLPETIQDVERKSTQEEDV
The experiment in a line: (§1) TP_TRANSPORTER: uptake in Oat2-expressing LLC PK1 cells. In kind it is functional, cell-based. To be noted: pig.

Substrate in series [3]: Nc1ccn([C@H]2CC[C@@H](CO)O2)c(=O)n1
The description is as §1. The series is classed as functional, cell-based.

Substrate in series [4]: O=C(O)c1ccccc1O
The experiment in a line: cells, lysate or membranes named.

A word on the Ki: it is the dissociation constant of the complex between target and ligand, obtained from inhibition or displacement. In series [1], `COc1ccc(Cl)cc1C(=O)NCCc1ccc(S(=O)(=O)NC(=O)NC2CCCCC2)cc1` [GLYBURIDE] returned an inhibitory constant (Ki) of 12.3 µM.

`CC1(C)C(/C=C/C=C/C=C/C=C2\N(CCCCS(=O)(=O)O)c3ccc4ccccc4c3C2(C)C)=[N+](CCCCS(=O)(=O)[O-])c2ccc3ccccc3c21` [INDOCYANINE GREEN] came in with a Ki in series [1] of 1.15 µM.

As a reminder, the Km is the concentration of substrate that gives half-maximal velocity. As to `COc1ccc2c(c1)c(CC(=O)O)c(C)n2C(=O)c1ccc(Cl)cc1` [INDOMETHACIN], the Km in series [2] came out at 0.366 µM.

Molecule `CC(C(=O)O)c1cccc(C(=O)c2ccccc2)c1` (configuration not stated) [KETOPROFEN] registered a Ki in series [1] of 1.84 µM. This counts as single-digit micromolar.

On to `Cc1cn([C@H]2C[C@H](N=[N+]=[N-])[C@@H](CO)O2)c(=O)[nH]c1=O` [ZIDOVUDINE], for which, in series [2], the Michaelis constant (Km) was determined as 26 µM.

B1: Solute carrier family 22 member 7 (Rattus norvegicus) (protein)
chain: MGFEDLLDKVGGFGPFQLRNLVLMALPRMLLPMHFLLPVFMAAVPAHHCALPGAPANLSHQDLWLEAHLPRETDGSFSSCLRFAYPQTVPNVTLGTEVSNSGEPEGEPLTVPCSQGWEYDRSEFSSTIATEWDLVCQQRGLNKITSTCFFIGVLVGAVVYGYLSDRFGRRRLLLVAYVSSLVLGLMSAASINYIMFVVTRTLTGSALAGFTIIVLPLELEWLDVEHRTVAGVISTVFWSGGVLLLALVGYLIRSWRWLLLAATLPCVPGIISIWWVPESARWLLTQGRVEEAKKYLLSCAKLNGRPVGEGSLSQEALNNVVTMERALQRPSYLDLFRTSQLRHISLCCMMVWFGVNFSYYGLTLDVSGLGLNVYQTQLLFGAVELPSKIMVYFLVRRLGRRLTEAGMLLGAALTFGTSLLVSLETKSWITALVVVGKAFSEAAFTTAYLFTSELYPTVLRQTGLGLTALMGRLGASLAPLAALLDGVWLLLPKVAYGGIALVAACTALLLPETKKAQLPETIQDVERKSTQEEDV
With B1, the Michaelis-Menten constant (Km) in series [3] came out at 3000 µM; in series [4], 81.2 µM.
